These results are taken from patent US20060147411A1, “Novel compounds for the treatment of sickle cell disease” (University of Maryland, Baltimore, priority 2003, published 2006).

Assay [1] addresses cytochrome b5 (Rattus norvegicus, UniProt P00173). Briefly: HSQC perturbation mapping: concentration dependence of hexacyclen-induced heteronuclear correlation peak shifts. The assay is classed as binding. The conditions noted are these: 1H-15N HSQC peak shifts, hexacyclen 0.5 to 8 mM, pH 7.0, 1 mM phosphate buffer, 40° C; read-out: dissociation constant. The protocol:
Hexacyclen (1,4,7,10,13,16-hexaazacyclooctadecane)(Richman, J. E.; Atkins, T. J. 1974, J. Am. Chem. Soc., 96, 2268-2269) binds to cytochrome b5 such the HSQC spectra of cytochrome b5-hexacyclen is similar to the HSQC spectra of cytochrome b5-hemoglobin. The concentration dependence of hexacyclen-induced heteronuclear correlation peak shifts indicates a dissociation constant of roughly 2 mM. FIG. 2 illustrates the heteronuclear correlation spectra (HSQC spectra) of a 2 mM solution of cytochrome b5 by itself (black contours) and that of a solution containing 2 mM cytochrome b5 and 4 mM hexacyclen (gray contours). The inset in the upper left hand corner of the figure contains a plot of the hexacyclen dependence of the shifts in the peak to peak separation of aspartate 60 (D60) at concentrations of hexacylen ranging from 0.5 to 8 mM. The inset at the upper right is a model for the interaction of hexacyclen based on the shifts observed in the HSQC perturbation study. Solutions were buffered to a pH of 7.0 with 1 mM phosphate buffer and the spectra were recorded at 40° C. […]
The binding of the R1 and R3 moieties to cytochrome b5 is characterized using HSQC perturbation mapping experiments. […] Solutions were buffered to a pH of 7.0 with 1 mM phosphate buffer and the spectra were recorded at 40° C. […]

In a further assay the test system is sickle cell patients. The conditions noted are these: nearly 300 sickle cell patients; cited from earlier work.
Assay [2] deals with cytochrome b5. The conditions noted are these: read-out: affinity of binding to cytochrome b5; cited from earlier work.

cytochrome b5 (Rattus norvegicus, UniProt P00173), sequence (P00173 whole entry): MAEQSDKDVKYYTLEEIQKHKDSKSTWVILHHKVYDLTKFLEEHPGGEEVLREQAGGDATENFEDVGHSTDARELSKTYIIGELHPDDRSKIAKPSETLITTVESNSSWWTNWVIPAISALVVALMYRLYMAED

Consider `C1CNCCNCCNCCNCCNCCN1` [Hexacyclen, 1,4,7,10,13,16-hexaazacyclooctadecane], for which the Kd on cytochrome b5 [1] was ~2000 µM.
Regarding `NC(=O)NO` [hydroxyurea], in the assay on sickle cell patients, the “occurrence of vaso-occlusive crises, reduced to % of that observed” value is recorded as “roughly 50%”.
As to `Nc1ncnc2c1ncn2[C@H]1O[C@@H](COP(=O)(O)OP(=O)(O)OP(=O)(O)O)C(O)C1O` (stereo partly drawn) [ATP, Adenosine 5′-triphosphate], the Kd at cytochrome b5 [2] was 180 µM.
